Consider 17 compounds from patent publication US9499538B2, “Estrogen receptor modulators and uses thereof” (Seragon Pharmaceuticals, Inc., priority 2012, dated 2016).

Where only a bound is given, the exact number is not on record here.

Test [1] concerns the target T1, ER-α in MCF-7 cells (Homo sapiens, UniProt P03372).
T1 construct: endogenous in cells; host or cells: MCF-7
T1 sequence (P03372 1-595): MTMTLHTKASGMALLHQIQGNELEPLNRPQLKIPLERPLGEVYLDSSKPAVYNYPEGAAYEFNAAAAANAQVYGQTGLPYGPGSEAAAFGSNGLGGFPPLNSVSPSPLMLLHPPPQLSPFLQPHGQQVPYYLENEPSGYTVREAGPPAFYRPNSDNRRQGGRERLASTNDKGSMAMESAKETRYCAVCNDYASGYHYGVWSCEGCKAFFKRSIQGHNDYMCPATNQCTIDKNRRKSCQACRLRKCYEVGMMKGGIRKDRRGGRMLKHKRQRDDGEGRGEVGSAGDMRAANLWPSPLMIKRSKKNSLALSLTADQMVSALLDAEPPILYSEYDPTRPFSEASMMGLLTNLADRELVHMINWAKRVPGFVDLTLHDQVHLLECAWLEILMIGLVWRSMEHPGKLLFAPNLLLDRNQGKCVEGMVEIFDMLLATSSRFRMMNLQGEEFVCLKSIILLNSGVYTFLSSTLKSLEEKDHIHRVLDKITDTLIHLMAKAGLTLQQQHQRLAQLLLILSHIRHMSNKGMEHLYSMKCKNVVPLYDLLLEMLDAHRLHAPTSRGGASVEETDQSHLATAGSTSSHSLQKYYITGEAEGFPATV
In words: Breast Cancer Cell ER-α In Cell Western Assay (SP1). The conditions noted are these: 4 or 24 hr post compound addition; for Emax: MCF7, SP1 antibody, read-out: ER-α In Cell Western Assay (SP1) Max Response; for DC50: SP1 antibody, read-out: ER-α In Cell Western Assay (SP1) IC50. Type of test: cell-based. The procedure, abridged: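 MCF-7 cells in charcoal-stripped FBS medium, treated with 11-point semilog dilutions (0.3–0.000003 μM final) for 4 or 24 h. Fixed cells immunostained with SP1 antibody (800 nm) and DRAQ5 DNA (700 nm); ER/DNA ratio expressed as % of untreated cells.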

The subject of test [2] is MCF-7 cells. In words: Breast Cancer Cell Viability Assays (MCF-7, CellTiter-Glo). Type of test: cell-based. Particulars: 5 days' compound exposure; for IC50: Homo sapiens, MCF7, 120 h. The procedure, abridged: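 MCF-7 cells (320/well, RPMI with 10% FBS) exposed for 5 days to an eleven-point semilog series, 0.3–0.000003 μM final. Viability read by CellTiter-Glo luminescence, expressed as background-corrected percent of untreated cells.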
(In general: Cellular ATP, detected with luciferase, serves as a proxy for viable cell number.)

What is called IC50 is the concentration needed to halve the response being measured. Higher therefore signals a need for much substance. For `CC/C(=C(/c1ccc(/C=C/C(=O)O)cc1)c1ccc2[nH]nc(F)c2c1)c1cccc(Oc2cnc(S(C)(=O)=O)cn2)c1` [Example 57, (E)-3-(4-((E)-1-(3-Fluoro-1H-indazol-5-yl)-2-(3-((5-(methylsulfonyl)pyrazin-2-yl)oxy)phenyl)but-1-en-1-yl)phenyl)acrylic acid], in test [1], the Emax is no less than 40% and the DC50 is no more than 100 nM. For the same compound, in test [2], the “MCF7 Viability Assay Max Response” value is given as “++ (++ = a single % value ≧ 40%)” and the IC50 was no more than 100 nM.
For the compound `CC/C(=C(/c1ccc(/C=C/C(=O)O)cc1)c1ccc2[nH]nc(F)c2c1)c1ccc(Oc2cncc(S(C)(=O)=O)n2)cc1` [Example 58, (E)-3-(4-((E)-1-(3-Fluoro-1H-indazol-5-yl)-2-(4-((6-(methylsulfonyl)pyrazin-2-yl)oxy)phenyl)but-1-en-1-yl)phenyl)acrylic acid], in test [1], the Emax was no less than 40% and the DC50 is greater than 100 nM. In test [2], the “MCF7 Viability Assay Max Response” value is “++ (++ = a single % value ≧ 40%)” and the IC50 was greater than 100 nM.
Consider `CC/C(=C(/c1ccc(/C=C/C(=O)O)cc1)c1ccc2[nH]nc(F)c2c1)c1ccc(Oc2cnc(S(C)(=O)=O)cn2)cc1` [Example 59, (E)-3-(4-((E)-1-(3-Fluoro-1H-indazol-5-yl)-2-(4-((5-(methylsulfonyl)pyrazin-2-yl)oxy)phenyl)but-1-en-1-yl)phenyl)acrylic acid], for which, in test [1], the Emax is no less than 40% and the DC50 is no more than 100 nM. Also, in test [2], the “MCF7 Viability Assay Max Response” value was “++ (++ = a single % value ≧ 40%)” and the IC50 is no more than 100 nM.
As for `N#Cc1ccc(/C(=C(\c2ccc(/C=C/C(=O)O)cc2)c2ccc3[nH]ncc3c2F)C2CCC2)c(F)c1` [Example 60, (E)-3-(4-((E)-2-(4-Cyano-2-fluorophenyl)-2-cycobutyl-1-(4-fluoro-1H-indazol-5-yl)vinyl)phenyl)acrylic acid], in test [1], the Emax was no less than 40% and the DC50 was no more than 100 nM. In addition, in test [2], the “MCF7 Viability Assay Max Response” value is recorded as “++ (++ = a single % value ≧ 40%)” and the IC50 is no more than 100 nM.
Regarding `N#Cc1cc(Cl)ccc1/C(=C(\c1ccc(/C=C/C(=O)O)cc1)c1ccc2[nH]ncc2c1F)C1CCC1` [Example 61, (E)-3-(4-((E)-2-(4-Chloro-2-cyanophenyl)-2-cyclobutyl-1-(4-fluoro-1H-indazol-5-yl)vinyl)phenyl)acrylic acid], in test [1], the Emax was no less than 40% and the DC50 is no more than 100 nM. In test [2], the “MCF7 Viability Assay Max Response” value is recorded as “++ (++ = a single % value ≧ 40%)” and the IC50 was no more than 100 nM.
Turning to `N#Cc1ccc(/C(=C(\c2ccc(/C=C/C(=O)O)cc2)c2ccc3[nH]nc(F)c3c2)C2CCC2)c(C#N)c1` [Example 62, (E)-3-(4-((E)-2-Cyclobutyl-2-(2,4-dicyanophenyl)-1-(3-fluoro-1H-indazol-5-yl)vinyl)phenyl)acrylic acid], in test [1], the Emax was no less than 40% and the DC50 is no more than 100 nM. Further, in test [2], the “MCF7 Viability Assay Max Response” value is “++ (++ = a single % value ≧ 40%)” and the IC50 is no more than 100 nM.
Take `CC/C(=C(/c1ccc(/C=C/C(=O)O)cc1)c1ccc2[nH]nc(F)c2c1)c1ccc(OC)cc1C` [Example 63, (E)-3-(4-((E)-1-(3-Fluoro-1H-indazol-5-yl)-2-(4-methoxy-2-methylphenyl)but-1-en-1-yl)phenyl)acrylic acid]: in test [1], the Emax was no less than 40% and the DC50 was no more than 100 nM. Further, in test [2], the “MCF7 Viability Assay Max Response” value is listed as “++ (++ = a single % value ≧ 40%)” and the IC50 is no more than 100 nM.
Consider `COc1ccc(/C(=C(\c2ccc(/C=C/C(=O)O)cc2)c2ccc3[nH]ncc3c2)C2CCC2)c(C)c1` [Example 64, (E)-3-(4-((E)-2-Cyclobutyl-1-(1H-indazol-5-yl)-2-(4-methoxy-2-methylphenyl)vinyl)phenyl)acrylic acid], for which, in test [1], the Emax was no less than 40% and the DC50 is no more than 100 nM. Also, in test [2], the “MCF7 Viability Assay Max Response” value is on record as “++ (++ = a single % value ≧ 40%)” and the IC50 is no more than 100 nM.
In the case of `COc1ccc(/C(=C(\c2ccc(/C=C/C(=O)O)cc2)c2ccc3[nH]nc(F)c3c2)C2CCC2)c(C)c1` [Example 65, (E)-3-(4-((E)-2-Cyclobutyl-1-(3-fluoro-1H-indazol-5-yl)-2-(4-methoxy-2-methylphenyl)vinyl)phenyl)acrylic acid], in test [1], the Emax was no less than 40% and the DC50 was no more than 100 nM. In test [2], the “MCF7 Viability Assay Max Response” value is “++ (++ = a single % value ≧ 40%)” and the IC50 was no more than 100 nM.
Take `N#Cc1cc(F)ccc1/C(=C(\c1ccc(/C=C/C(=O)O)cc1)c1ccc2[nH]ncc2c1F)C1CCC1` [Example 66, (E)-3-(4-((E)-2-(2-Cyano-4-fluorophenyl)-2-cyclobutyl-1-(4-fluoro-1H-indazol-5-yl)vinyl)phenyl)acrylic acid]: in test [1], the Emax was no less than 40% and the DC50 is no more than 100 nM. Besides, in test [2], the “MCF7 Viability Assay Max Response” value is reported as “++ (++ = a single % value ≧ 40%)” and the IC50 was no more than 100 nM.
As to `COc1ccc(/C(=C(\c2ccc(/C=C/C(=O)O)cc2)c2ccc3[nH]nc(F)c3c2)C2CCC2)c(Cl)c1` [Example 67, (E)-3-(4-((E)-2-(2-Chloro-4-methoxyphenyl)-2-cyclobutyl-1-(3-fluoro-1H-indazol-5-yl)vinyl)phenyl)acrylic acid], in test [1], the Emax was no less than 40% and the DC50 was no more than 100 nM. Further, in test [2], the “MCF7 Viability Assay Max Response” value was “++ (++ = a single % value ≧ 40%)” and the IC50 is no more than 100 nM.
For the compound `COc1ccc(/C(=C(\c2ccc(/C=C/C(=O)O)cc2)c2ccc3[nH]nc(F)c3c2)C2CCC2)c(F)c1` [Example 68, (E)-3-(4-((E)-2-Cyclobutyl-1-(3-fluoro-1H-indazol-5-yl)-2-(2-fluoro-4-methoxyphenyl)vinyl)phenyl)acrylic acid], in test [1], the Emax is no less than 40% and the DC50 was no more than 100 nM. In test [2], the “MCF7 Viability Assay Max Response” value is listed as “++ (++ = a single % value ≧ 40%)” and the concentration for half-maximal inhibition (IC50) was no more than 100 nM.
Turning to `COc1ccc(/C(=C(\c2ccc(/C=C/C(=O)O)cc2)c2ccc3[nH]nc(F)c3c2)C2CCC2)c(C)n1` [Example 69, (E)-3-(4-((E)-2-Cyclobutyl-1-(3-fluoro-1H-indazol-5-yl)-2-(6-methoxy-2-methylpyridin-3-yl)vinyl)phenyl)acrylic acid], in test [1], the Emax is no less than 40% and the DC50 was no more than 100 nM. Also, in test [2], the “MCF7 Viability Assay Max Response” value is “++ (++ = a single % value ≧ 40%)” and the IC50 was no more than 100 nM.
For the compound `CC/C(=C(/c1ccc(/C=C/C(=O)O)cc1)c1ccc2[nH]nc(F)c2c1)c1ccc(OC)nc1C` [Example 70, (E)-3-(4-((E)-1-(3-Fluoro-1H-indazol-5-yl)-2-(6-methoxy-2-methylpyridin-3-yl)but-1-en-1-yl)phenyl)acrylic acid], in test [1], the Emax is no less than 40% and the DC50 is no more than 100 nM. For the same compound, in test [2], the “MCF7 Viability Assay Max Response” value is “++ (++ = a single % value ≧ 40%)” and the IC50 is no more than 100 nM.
As for `CC/C(=C(/c1ccc(/C=C/C(=O)O)cc1)c1ccc2[nH]nc(F)c2c1)c1cnc(OC)cc1C` [Example 71, (E)-3-(4-((E)-1-(3-Fluoro-1H-indazol-5-yl)-2-(6-methoxy-4-methylpyridin-3-yl)but-1-en-1-yl)phenyl)acrylic acid], in test [1], the Emax was no less than 40% and the DC50 was no more than 100 nM. Moreover, in test [2], the “MCF7 Viability Assay Max Response” value is “++ (++ = a single % value ≧ 40%)” and the IC50 is no more than 100 nM.
Take `CSc1ccc(/C(=C(\c2ccc(/C=C/C(=O)O)cc2)c2ccc3[nH]nc(F)c3c2)C2CCC2)c(C)c1` [Example 72, (E)-3-(4-((E)-2-Cyclobutyl-1-(3-fluoro-1H-indazol-5-yl)-2-(2-methyl-4-(methylthio)phenyl)vinyl)phenyl)acrylic acid]: in test [1], the Emax was no less than 40% and the DC50 is no more than 100 nM. In addition, in test [2], the “MCF7 Viability Assay Max Response” value is listed as “++ (++ = a single % value ≧ 40%)” and the IC50 was no more than 100 nM.
On to `CSc1ccc(/C(=C(\c2ccc(/C=C/C(=O)O)cc2)c2ccc3[nH]nc(F)c3c2)C2CCC2)c(Cl)c1` [Example 73, (E)-3-(4-((E)-2-(2-Chloro-4-(methylthio)phenyl)-2-cyclobutyl-1-(3-fluoro-1H-indazol-5-yl)vinyl)phenyl)acrylic acid], for which, in test [1], the Emax was no less than 40% and the DC50 was no more than 100 nM. For the same compound, in test [2], the “MCF7 Viability Assay Max Response” value was “++ (++ = a single % value ≧ 40%)” and the IC50 was no more than 100 nM.
